Residue numbers refer to the chain shown, from its start.

Here are results for seven molecules from patent US20260234157A1, “COMPOUND AND METHOD FOR TARGETED DEGRADATION OF ANDROGEN RECEPTOR” (Gan & Lee Pharmaceuticals Co., Ltd., priority 2023, published 2026).

In the first assay the target is T1, AR protein (Homo sapiens, UniProt P10275).
T1 construct: degradation activity of the compounds disclosed in the present disclosure on AR protein in VCaP cells; host or cells: VCaP
T1 sequence (P10275 1-920): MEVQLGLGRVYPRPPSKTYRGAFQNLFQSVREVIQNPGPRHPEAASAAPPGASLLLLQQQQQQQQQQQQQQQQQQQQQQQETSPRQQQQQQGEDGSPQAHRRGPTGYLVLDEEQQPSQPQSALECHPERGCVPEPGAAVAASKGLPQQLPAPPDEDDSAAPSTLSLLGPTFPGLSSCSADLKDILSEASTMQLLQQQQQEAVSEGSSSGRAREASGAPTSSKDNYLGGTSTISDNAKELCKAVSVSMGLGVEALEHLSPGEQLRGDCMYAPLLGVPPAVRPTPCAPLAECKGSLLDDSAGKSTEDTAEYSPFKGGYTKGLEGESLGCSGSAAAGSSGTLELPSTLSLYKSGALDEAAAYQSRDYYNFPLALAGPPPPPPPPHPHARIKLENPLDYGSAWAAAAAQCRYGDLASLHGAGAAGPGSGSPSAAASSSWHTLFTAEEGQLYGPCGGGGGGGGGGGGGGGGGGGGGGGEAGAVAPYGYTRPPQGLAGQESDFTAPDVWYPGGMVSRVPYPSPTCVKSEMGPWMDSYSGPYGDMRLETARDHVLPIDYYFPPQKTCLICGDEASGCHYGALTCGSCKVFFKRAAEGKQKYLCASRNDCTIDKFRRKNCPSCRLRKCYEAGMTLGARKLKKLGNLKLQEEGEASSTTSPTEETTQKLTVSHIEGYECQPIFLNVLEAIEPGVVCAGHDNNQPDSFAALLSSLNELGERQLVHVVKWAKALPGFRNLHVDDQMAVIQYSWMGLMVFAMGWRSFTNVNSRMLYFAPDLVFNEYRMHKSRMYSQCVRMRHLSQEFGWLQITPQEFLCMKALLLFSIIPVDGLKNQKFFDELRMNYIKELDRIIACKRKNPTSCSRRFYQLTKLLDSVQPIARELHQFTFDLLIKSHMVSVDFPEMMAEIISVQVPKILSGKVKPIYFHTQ
The assay is described as follows: Degradation of AR protein in VCaP cells (Western blot). In kind it is cell-based. Particulars: compound at 10 nM, 8 hours. The method, then:
The degradation activity of the compounds disclosed in the present disclosure on AR protein in VCaP cells (cell source: ATCC)
(§1) Corresponding solvent controls were also set and cultured for 8 hours. After 8 hours of cultivation, the culture medium was removed and the cells were washed with PBS. RIPA lysis buffer containing 1% Protease Inhibitor Cocktail was added, and the total protein extract was obtained by lysis and centrifugation. The protein concentration in the extract was detected by BCA method. Protein electrophoresis was performed using SDS-PAGE, followed by transfer of the protein onto a PVDF (Millipore Sigma catalog No. PSRP010R5) membrane at 100V constant voltage for 60 minutes. The PVDF membrane was then placed in a 1×TBST solution with 5% milk and blocked at room temperature for 1 hour. […] The primary antibody solution was discarded and the PVDF membrane was washed three times with 1×TBST for 5 minutes/time. […] The secondary antibody solution was discarded and the PVDF membrane was washed three times with 1×TBST for 5 minutes/time. Western blot imaging was performed by using a dual color infrared laser imaging system (Licor catalog No. Odyssey CLX). Bands were analyzed in grayscale using Image Studio software. For each sample, GAPDH protein bands were detected as internal reference. The degradation rates of the AR protein for the compounds and the positive control sample were calculated based on grayscale of the protein bands.
Background: Immunoblotting shows a protein as a band on a membrane.
For the molecule `N#Cc1ccc(O[C@H]2CC[C@H](NC(=O)c3ccc(N4CC5(CC(N6CCC7(CC6)COc6c7ccc7c6C(=O)N(C6CCC(=O)NC6=O)C7=O)C5)C4)nn3)CC2)cc1Cl` (some centres unmarked) [Compound 140], the “Degradation rate of the AR protein in VCaP cells, 10 nM (%)” value is reported as −14%.

The same assay, now with this note: compound at 10 nM, 8 hours, read-out: Degradation rate of the AR protein in VCaP cells, 10 nM (%).
Consider `N#Cc1ccc(O[C@H]2CC[C@H](NC(=O)c3ccc(N4CCC(CN5CC6(CCc7cc8c(cc7O6)C(=O)N(C6CCC(=O)NC6=O)C8=O)C5)CC4)nn3)CC2)cc1Cl` (some centres unmarked) [Compound 1], for which the inhibition at 0.01 µM is 65%.

For `COC1(CN2CC3(CCc4cc5c(cc4O3)C(=O)N(C3CCC(=O)NC3=O)C5)C2)CCN(c2ccc(C(=O)N[C@H]3CC[C@H](Oc4ccc(C#N)c(Cl)c4)CC3)nn2)CC1` (some centres unmarked) [Compound 9], the inhibition at 0.01 µM was found to be 87%.

With `N#Cc1ccc(O[C@H]2CC[C@H](NC(=O)c3ccc(N4CCC5(CC4)CC(N4CCC6(CCc7cc8c(cc7O6)C(=O)N(C6CCC(=O)NC6=O)C8=O)CC4)C5)nn3)CC2)cc1Cl` (some centres unmarked) [Compound 31], the inhibition at 0.01 µM was determined as 67%.

Regarding `N#Cc1ccc(O[C@H]2CC[C@H](NC(=O)c3ccc(N4CC(N5CCC6(CCc7cc8c(cc7O6)CN(C6CCC(=O)NC6=O)C8=O)CC5)C4)nn3)CC2)cc1Cl` (some centres unmarked) [Compound 42], the inhibition at 0.01 µM worked out at 45%.

For `N#Cc1ccc(O[C@H]2CC[C@H](NC(=O)c3ccc(N4CCC5(CC4)CC(N4CCC6(CC4)COc4cc7c(cc46)C(=O)N(C4CCC(=O)NC4=O)C7=O)C5)nn3)CC2)cc1Cl` (some centres unmarked) [Compound 47], the inhibition at 0.01 µM was determined as 82%.

Take `N#Cc1ccc(O[C@H]2CC[C@H](NC(=O)c3ccc(N4CCC(CN5CCC6(CC5)COc5cc7c(cc5O6)CN(C5CCC(=O)NC5=O)C7=O)CC4)nn3)CC2)cc1Cl` (some centres unmarked) [Compound 76]: the inhibition at 0.01 µM came to 84%.

Still in this assay, the particulars now being: compound at 100 nM, 8 hours.
On to `N#Cc1ccc(O[C@H]2CC[C@H](NC(=O)c3ccc(N4CC5(CC(N6CCC7(CC6)COc6c7ccc7c6C(=O)N(C6CCC(=O)NC6=O)C7=O)C5)C4)nn3)CC2)cc1Cl` (some centres unmarked) [Compound 140], for which the “Degradation rate of the AR protein in VCaP cells, 100 nM (%)” value is given as 38%.

Staying with this assay, now noted: compound at 100 nM, 8 hours, read-out: Degradation rate of the AR protein in VCaP cells, 100 nM (%).
As for `N#Cc1ccc(O[C@H]2CC[C@H](NC(=O)c3ccc(N4CCC(CN5CC6(CCc7cc8c(cc7O6)C(=O)N(C6CCC(=O)NC6=O)C8=O)C5)CC4)nn3)CC2)cc1Cl` (some centres unmarked) [Compound 1], the inhibition at 0.1 µM was 79%.

`COC1(CN2CC3(CCc4cc5c(cc4O3)C(=O)N(C3CCC(=O)NC3=O)C5)C2)CCN(c2ccc(C(=O)N[C@H]3CC[C@H](Oc4ccc(C#N)c(Cl)c4)CC3)nn2)CC1` (some centres unmarked) [Compound 9]: the inhibition at 0.1 µM is 82%.

Take `N#Cc1ccc(O[C@H]2CC[C@H](NC(=O)c3ccc(N4CCC5(CC4)CC(N4CCC6(CCc7cc8c(cc7O6)C(=O)N(C6CCC(=O)NC6=O)C8=O)CC4)C5)nn3)CC2)cc1Cl` (some centres unmarked) [Compound 31]: the inhibition at 0.1 µM worked out at 70%.

Consider `N#Cc1ccc(O[C@H]2CC[C@H](NC(=O)c3ccc(N4CC(N5CCC6(CCc7cc8c(cc7O6)CN(C6CCC(=O)NC6=O)C8=O)CC5)C4)nn3)CC2)cc1Cl` (some centres unmarked) [Compound 42], for which the inhibition at 0.1 µM came out at 33%.

Turning to `N#Cc1ccc(O[C@H]2CC[C@H](NC(=O)c3ccc(N4CCC5(CC4)CC(N4CCC6(CC4)COc4cc7c(cc46)C(=O)N(C4CCC(=O)NC4=O)C7=O)C5)nn3)CC2)cc1Cl` (some centres unmarked) [Compound 47], the inhibition at 0.1 µM turned out to be 79%.

Regarding `N#Cc1ccc(O[C@H]2CC[C@H](NC(=O)c3ccc(N4CCC(CN5CCC6(CC5)COc5cc7c(cc5O6)CN(C5CCC(=O)NC5=O)C7=O)CC4)nn3)CC2)cc1Cl` (some centres unmarked) [Compound 76], the inhibition at 0.1 µM was found to be 76%.

A further assay addresses T2, AR protein (Homo sapiens, UniProt P10275, T878A).
T2 construct: degradation activity of the compounds disclosed in the present disclosure on AR protein in LNCaP cells; host or cells: LNCaP FGC
T2 sequence (P10275 1-920 T878A): T1 sequence (P10275 1-920) with T878A
Nature of the assay: Degradation of AR protein in LNCaP cells (Western blot). Particulars: LNCaP cells, compound 10 nM, 8 hours, Western blot grayscale, GAPDH internal reference; read-out: Degradation rates of the AR protein in LNCaP cells, 10 nM (%). It is filed as cell-based. The method, then: The degradation activity of the compounds disclosed in the present disclosure on AR protein in LNCaP cells (cell source: ATCC)
as §1
As to `N#Cc1ccc(O[C@H]2CC[C@H](NC(=O)c3ccc(N4CCC(CN5CC6(CCc7cc8c(cc7O6)C(=O)N(C6CCC(=O)NC6=O)C8=O)C5)CC4)nn3)CC2)cc1Cl` (some centres unmarked) [Compound 1], the inhibition at 0.01 µM worked out at 44%.

With `COC1(CN2CC3(CCc4cc5c(cc4O3)C(=O)N(C3CCC(=O)NC3=O)C5)C2)CCN(c2ccc(C(=O)N[C@H]3CC[C@H](Oc4ccc(C#N)c(Cl)c4)CC3)nn2)CC1` (some centres unmarked) [Compound 9], the inhibition at 0.01 µM was 56%.

As to `N#Cc1ccc(O[C@H]2CC[C@H](NC(=O)c3ccc(N4CCC5(CC4)CC(N4CCC6(CCc7cc8c(cc7O6)C(=O)N(C6CCC(=O)NC6=O)C8=O)CC4)C5)nn3)CC2)cc1Cl` (some centres unmarked) [Compound 31], the inhibition at 0.01 µM amounted to 52%.

Consider `N#Cc1ccc(O[C@H]2CC[C@H](NC(=O)c3ccc(N4CCC5(CC4)CC(N4CCC6(CC4)COc4cc7c(cc46)C(=O)N(C4CCC(=O)NC4=O)C7=O)C5)nn3)CC2)cc1Cl` (some centres unmarked) [Compound 47], for which the inhibition at 0.01 µM worked out at 54%.

Take `N#Cc1ccc(O[C@H]2CC[C@H](NC(=O)c3ccc(N4CCC(CN5CCC6(CC5)COc5cc7c(cc5O6)CN(C5CCC(=O)NC5=O)C7=O)CC4)nn3)CC2)cc1Cl` (some centres unmarked) [Compound 76]: the inhibition at 0.01 µM amounted to 74%.

Still in this assay, the particulars now being: LNCaP cells, compound 100 nM, 8 hours, Western blot grayscale, GAPDH internal reference; read-out: Degradation rates of the AR protein in LNCaP cells, 100 nM (%).
For `N#Cc1ccc(O[C@H]2CC[C@H](NC(=O)c3ccc(N4CCC(CN5CC6(CCc7cc8c(cc7O6)C(=O)N(C6CCC(=O)NC6=O)C8=O)C5)CC4)nn3)CC2)cc1Cl` (some centres unmarked) [Compound 1], the inhibition at 0.1 µM came to 82%.

With `COC1(CN2CC3(CCc4cc5c(cc4O3)C(=O)N(C3CCC(=O)NC3=O)C5)C2)CCN(c2ccc(C(=O)N[C@H]3CC[C@H](Oc4ccc(C#N)c(Cl)c4)CC3)nn2)CC1` (some centres unmarked) [Compound 9], the inhibition at 0.1 µM is 66%.

For the molecule `N#Cc1ccc(O[C@H]2CC[C@H](NC(=O)c3ccc(N4CCC5(CC4)CC(N4CCC6(CCc7cc8c(cc7O6)C(=O)N(C6CCC(=O)NC6=O)C8=O)CC4)C5)nn3)CC2)cc1Cl` (some centres unmarked) [Compound 31], the inhibition at 0.1 µM worked out at 69%.

With `N#Cc1ccc(O[C@H]2CC[C@H](NC(=O)c3ccc(N4CCC5(CC4)CC(N4CCC6(CC4)COc4cc7c(cc46)C(=O)N(C4CCC(=O)NC4=O)C7=O)C5)nn3)CC2)cc1Cl` (some centres unmarked) [Compound 47], the inhibition at 0.1 µM was 67%.

`N#Cc1ccc(O[C@H]2CC[C@H](NC(=O)c3ccc(N4CCC(CN5CCC6(CC5)COc5cc7c(cc5O6)CN(C5CCC(=O)NC5=O)C7=O)CC4)nn3)CC2)cc1Cl` (some centres unmarked) [Compound 76]: the inhibition at 0.1 µM is 74%.

The same assay, now with this note: LNCaP, 8 h, read-out: Degradation rates of the AR protein in LNCaP cells, 10 nM (%).
As to `N#Cc1ccc(O[C@H]2CC[C@H](NC(=O)c3ccc(N4CC(N5CCC6(CCc7cc8c(cc7O6)CN(C6CCC(=O)NC6=O)C8=O)CC5)C4)nn3)CC2)cc1Cl` (some centres unmarked) [Compound 42], the inhibition at 0.01 µM amounted to 29%.

Staying with this assay, now noted: LNCaP, 8 h, read-out: Degradation rates of the AR protein in LNCaP cells, 100 nM (%).
As for `N#Cc1ccc(O[C@H]2CC[C@H](NC(=O)c3ccc(N4CC(N5CCC6(CCc7cc8c(cc7O6)CN(C6CCC(=O)NC6=O)C8=O)CC5)C4)nn3)CC2)cc1Cl` (some centres unmarked) [Compound 42], the inhibition at 0.1 µM amounted to 49%.
